From ChEMBL document CHEMBL1130302, “1-Arylsulfonyl-3-(-hydroxybenzyl)-1H-pyrroles, a novel class of anti-HIV-1 reverse transcriptase inhibitors” (Bioorg Med Chem Lett, 1997)

Legend:
[1] = Selectivity index reported as ratio of CC50 to EC50; assay type: functional
MT4 = test: Concentration required to reduce the viability of mock-infected MT-4 cells by 50%; assay type: functional; settings: Homo sapiens
[2] = system: Human immunodeficiency virus 1; test: Concentration required to achieve 50% protection of MT-4 cells against the cytopathic effect of HIV-1; assay type: functional, organism-based; settings: Human immunodeficiency virus 1, MT4
[3] = biological target: Human immunodeficiency virus type 1 reverse transcriptase (Human immunodeficiency virus 1, UniProt Q72547); test: Inhibition of HIV-1 recombinant reverse transcriptase

| Compound | Ratio [1] | CC50 (MT4) [µM] | EC50 [2] [µM] | IC50 [3] [µM] | SI [1] |
| --- | --- | --- | --- | --- | --- |
| CC(=O)OC(c1ccn(S(=O)(=O)c2ccc(C)cc2)c1)c1ccc(Cl)cc1Cl (stereo not given) | 10 | 100 | 9.8 | – | – |
| O=S(=O)(c1ccc(Cl)cc1)n1ccc(C(O)c2ccc(Cl)cc2Cl)c1 (stereo not given) | 21.8 | 96 | 4.4 | 17 | – |
| O=S(=O)(c1ccccc1)n1ccc(C(O)c2c(F)cccc2F)c1 (stereo not given) | 2 | 100 | 48 | – | – |
| CC(C)c1ccc(S(=O)(=O)n2ccc(C(O)c3ccc(Cl)cc3Cl)c2)cc1 (stereo not given) | 28 | 51 | 1.8 | 2.5 | – |
| CCc1ccc(S(=O)(=O)n2ccc(C(O)c3ccc(Cl)cc3Cl)c2)cc1 (stereo not given) | 47 | 71 | 1.5 | 22 | – |
| Cc1cn([C@H]2C[C@H](N=[N+]=[N-])[C@@H](CO)O2)c(=O)[nH]c1=O [ZIDOVUDINE] | – | > 20 | 0.01 | – | – |
| Cc1ccc(C(O)c2ccn(S(=O)(=O)c3ccc(C)cc3)c2)cc1 (stereo not given) | 13 | 96 | 7.3 | 4.7 | – |
| CCOP(=O)(OCC)OP(=O)(OCC)OCC [ETHYL PYROPHOSPHATE] | 106 | 740 | 7 | – | – |
| O=C(c1ccccc1)c1ccn(S(=O)(=O)c2ccccc2)c1 | – | 32 | > 32 | – | – |
| Cc1ccc(S(=O)(=O)n2cc(C(O)c3ccc(Cl)cc3Cl)cc2C(=O)OC(C)C)cc1 (stereo not given) | 1.4 | 32 | 22 | – | – |
| O=S(=O)(c1ccccc1)n1ccc(C(O)c2ccccc2)c1 (stereo not given) | 15 | 124 | 8 | – | – |
| Cc1ccc(C(c2ccn(S(=O)(=O)c3ccccc3)c2)n2ccnc2)cc1 (stereo not given) | – | 26 | > 26 | – | – |
| CCOC(=O)c1cc(C(O)c2ccc(Cl)cc2Cl)cn1S(=O)(=O)c1ccc(C)cc1 (stereo not given) | 2.6 | 36 | 14 | – | – |
| Cc1ccc(C(O)c2ccn(S(=O)(=O)c3ccccc3)c2)cc1 (stereo not given) | 8 | 122 | 15 | – | – |
| COC(c1ccn(S(=O)(=O)c2ccc(C)cc2)c1)c1ccc(Cl)cc1Cl (stereo not given) | – | 82 | > 82 | – | – |
| CC(O)c1ccn(S(=O)(=O)c2cc(Cl)ccc2N)c1 (stereo not given) | – | 95 | > 95 | – | – |
| O=C(c1ccc(Cl)cc1)c1ccn(S(=O)(=O)c2ccccc2)c1 | – | 26 | > 26 | – | – |
| O=S(=O)(c1ccccc1)n1ccc(C(c2ccc(Cl)cc2)n2ccnc2)c1 (stereo not given) | – | 22 | > 22 | – | – |
| CCOC(=O)c1cc(C(O)c2ccc(Cl)cc2Cl)cn1S(=O)(=O)c1cc(Cl)ccc1N (stereo not given) | 1.8 | 29 | 16 | – | – |

| Compound | Ratio [1] | CC50 (MT4) [µM] | EC50 [2] [µM] | IC50 [3] [µM] | SI [1] |
| --- | --- | --- | --- | --- | --- |
| Cc1ccccc1S(=O)(=O)n1ccc(C(O)c2ccc(Cl)cc2Cl)c1 (stereo not given) | > 117 | > 200 | 1.7 | 27 | – |
| Cc1ccnc2c1NC(=O)c1cccnc1N2C1CC1 [NEVIRAPINE] | – | > 200 | – | – | – |
| O=S(=O)(c1ccccc1)n1ccc(C(c2ccc(Cl)cc2Cl)n2ccnc2)c1 (stereo not given) | – | 14 | > 14 | – | – |
| Nc1ccc(S(=O)(=O)n2ccc(C(O)c3ccc(Cl)cc3Cl)c2)cc1 (stereo not given) | 6.7 | 74 | 11 | – | – |
| O=S(=O)(c1ccccc1)n1ccc(C(c2ccccc2)n2ccnc2)c1 (stereo not given) | – | 25 | > 25 | – | – |
| Cc1ccc(S(=O)(=O)n2ccc(C(O)c3ccc(Cl)cc3Cl)c2)cc1 (stereo not given) | 203 | 61 | 0.3 | 18 | – |
| O=C(c1ccn(S(=O)(=O)c2ccccc2)c1)c1ccc(Cl)cc1Cl | – | 30 | > 30 | – | – |
| O=S(=O)(c1ccccc1)n1ccc(C(O)c2ccccc2Cl)c1 (stereo not given) | 27.5 | 113 | 4.1 | 29.5 | – |
| Cc1ccc(S(=O)(=O)n2ccc(C(O)c3ccc(Cl)cc3Cl)c2)c(C)c1 (stereo not given) | 200 | 60 | 0.3 | < 1.1 | – |
| O=S(=O)(c1ccccc1)n1ccc(C(O)c2ccc(Cl)cc2Cl)c1 (stereo not given) | 11 | 57 | 5 | > 30 | – |
| CC(C)OC(=O)c1cc(C(O)c2ccc(Cl)cc2Cl)cn1S(=O)(=O)c1ccc(Cl)cc1 (stereo not given) | – | 28 | > 28 | – | – |
| CCOC(=O)c1cc(C(O)c2ccc(Cl)cc2Cl)cn1S(=O)(=O)c1cc(Cl)ccc1[N+](=O)[O-] (stereo not given) | – | 14 | > 14 | – | – |
| O=[N+]([O-])c1ccc(S(=O)(=O)n2ccc(C(O)c3ccc(Cl)cc3Cl)c2)cc1 (stereo not given) | 2.2 | 50 | 22 | – | – |
| Nc1ccc(Cl)cc1S(=O)(=O)n1ccc(C(O)c2ccccc2)c1 (stereo not given) | 34 | 109 | 3.2 | > 30 | – |
| Cc1ccc(C(=O)c2ccn(S(=O)(=O)c3ccccc3)c2)cc1 | – | 30 | > 30 | – | – |
| COc1ccc(C(O)c2ccn(S(=O)(=O)c3ccc(C)cc3)c2)cc1 (stereo not given) | > 12 | > 200 | 15.7 | – | – |
| CC(C)(C)c1ccc(S(=O)(=O)n2ccc(C(O)c3ccc(Cl)cc3Cl)c2)cc1 (stereo not given) | – | 62 | 2.5 | 6.4 | 24 |
| O=S(=O)(c1ccccc1)n1ccc(C(O)c2ccc(Cl)cc2)c1 (stereo not given) | 7 | 66 | 9 | – | – |
| O=S(=O)(c1ccccc1)n1ccc(C(O)c2ccccc2F)c1 (stereo not given) | > 22 | > 200 | 9.1 | – | – |
